What was measured:
[1] = Plasma total cholesterol, HDL-cholesterol and neutral lipid in rats fed high-cholesterol diets; type: in vivo, Sprague-Dawley rats; settings: six weeks
Experimental: 30 three-week-old white Sprague-Dawley rats (Taihan laboratory animal center, Korea), each weighing about 90 to 110 g, were evenly divided into three dietary groups by a randomized block design.
The rats were allowed to feed freely on the specified diet together with water for six weeks, the ingestion amount was recorded daily and the,rats were weighed every 7 days, and then the record was analyzed.
The rats of the dietary groups obtained in Step 1 were sacrificed and blood samples were taken therefrom. The blood was allowed to stand for 2 hours and centrifuged at 3,000 rpm for 15 minutes and the supernatant was separated and stored in a deep freezer before use. The chemical analysis of blood was carried out by employing a blood chemical analyzer (CIBA Corning 550 Express, USA) to determine the changes in total cholesterol, HDL-cholesterol and triglyceride levels.

[2] = biological target: T1, HMG-CoA reductase (Rattus norvegicus, UniProt P51639); experiment: HMG-CoA reductase activity assay on liver microsomes of the fed rats; type: biochemical; settings: liver microsomes of rats fed 0.1% test substance in 1% cholesterol diet, versus control group
T1 construct: the supernatant was ultracentrifuged at 100,000×g for 60 minutes to obtain microsomal precipitates; from tissue; host or cells: liver microsomes of the fed rats
T1 sequence (P51639 1-887): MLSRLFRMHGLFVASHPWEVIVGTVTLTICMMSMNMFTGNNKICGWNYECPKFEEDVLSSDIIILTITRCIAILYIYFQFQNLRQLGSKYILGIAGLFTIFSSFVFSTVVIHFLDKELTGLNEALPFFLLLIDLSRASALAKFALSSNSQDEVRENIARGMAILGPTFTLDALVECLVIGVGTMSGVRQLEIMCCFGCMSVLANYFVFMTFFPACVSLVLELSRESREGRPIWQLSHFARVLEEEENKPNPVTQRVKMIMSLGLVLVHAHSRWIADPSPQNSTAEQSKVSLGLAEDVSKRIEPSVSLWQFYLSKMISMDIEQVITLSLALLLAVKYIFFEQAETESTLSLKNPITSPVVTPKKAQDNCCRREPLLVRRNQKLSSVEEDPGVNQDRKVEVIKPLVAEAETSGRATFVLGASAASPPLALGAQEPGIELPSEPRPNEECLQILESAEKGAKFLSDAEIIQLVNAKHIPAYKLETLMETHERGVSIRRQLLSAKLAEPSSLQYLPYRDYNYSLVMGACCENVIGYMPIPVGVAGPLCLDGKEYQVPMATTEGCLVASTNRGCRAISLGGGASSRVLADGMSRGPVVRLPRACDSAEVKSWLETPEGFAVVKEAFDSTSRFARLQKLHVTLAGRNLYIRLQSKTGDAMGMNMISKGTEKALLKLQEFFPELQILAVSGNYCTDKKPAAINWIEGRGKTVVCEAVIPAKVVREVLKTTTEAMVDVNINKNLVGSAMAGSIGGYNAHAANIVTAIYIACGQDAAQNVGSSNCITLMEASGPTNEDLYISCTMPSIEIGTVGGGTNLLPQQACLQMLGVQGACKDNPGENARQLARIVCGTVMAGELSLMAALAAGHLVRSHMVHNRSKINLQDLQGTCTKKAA
Experimental: In order to determine the activity of HMG-COA reductase, Hulcher's method was employed after some modification (see J. Lipid Res., 14, 625-641(1973)). In this method, the concentration of the coenzyme-A (CoA-SH), which is produced when HMG-CoA is reduced to a mevalonate salt by the action of HMG-CoA reductase, is determined by spectroscopy and the activity of HMG-CoA reductas e is calculated therefrom.
3g of liver tissue taken from each group of rats of Example 2 was washed successively with 100 ml of a cold saline (0.15M NaCl) and 100 ml of a cold buffer solution A (0.1M triethanolamine, HCl/0.2M EDTA/2 mM dithiothreitol (DTT)). The cold buffer solution A was added to the liver tissue in an amount of 2 ml per 1 g of the liver tissue and the mixture was homogenized with a homogenizer. The homogenate was centrifuged at 15,000×g for 15 minutes, and then, the supernatant was ultracentrifuged at 100,000×g for 60 minutes to obtain microsomal precipitates. The precipitates thus obtained was washed with a cold buffer solution A and kept in a 1.5 ml tube at −70° C. […]
Then, the reactant was mixed with 20 μl of DTNB buffer solution (3mM DTNB/0.1M triethanolamine/0.2M EDTA, pH 7.4) and the absorbance of the mixture was determined at 412 nm to calculate the amount of CoA-SH (activity of HMG-CoA reductase activity).

[3] = 1% cholesterol diet plus 0.1% test substance

| Compound | increase of HDL-C/Total-C ratio compared with control group ([1]; 0.1% in 1% cholesterol diet) [%] | reduction of neutral lipid content compared with control group ([1]; 0.1% in 1% cholesterol diet) [%] | reduction of total plasma cholesterol level compared with control group ([1]; 0.1% in 1% cholesterol diet) [%] | HDL-C (HDL-cholesterol) [1, 3] [mg/dL] | HDL-C/Total-C ratio (row head is a formula, MATH:00001) [1, 3] | TG (triglyceride) [1, 3] [mg/dL] | Total-C (total cholesterol) [1, 3] [mg/dL] | Inhibition of HMG-CoA reductase activity (%) [2] [%] |
| --- | --- | --- | --- | --- | --- | --- | --- | --- |
| O=c1c(O)c(-c2ccc(O)c(O)c2)oc2cc(O)cc(O)c12 [Quercetin, quercetin] | 54 | 17 | 30 | 41 ± 3 | 43 | 81 ± 4 | 95 ± 5 | 30 |
| C[C@@H]1O[C@@H](OC[C@H]2O[C@@H](Oc3c(-c4ccc(O)c(O)c4)oc4cc(O)cc(O)c4c3=O)[C@H](O)[C@@H](O)[C@@H]2O)[C@H](O)[C@H](O)[C@H]1O [Rutin] | – | 20 | 21 | 36 ± 2 | – | 78 ± 3 | – | 40 |
